Laboratory results from patent US8481005B2, “Methods to prevent cytotoxicity using N-acetyl-cysteine” (priority 2006, dated 2013).

Legend:
[1] = tested on: HEp2 cells co-cultured with PBMCs; experiment: VEGF in co-cultures of HEMA/NAC treated HEp2 cells with PBMCs (multiplex cytokine array); type: cell-based, human; design: unit not given here
Method: Treatment with NAC inhibits HEMA-mediated cell death and cytotoxicity. Thus, its ability to protect the function of cells in the presence of HEMA was also evaluated further. […] The cells were trypsinized and washed 4 times with 1×PBS before they were co-cultured with PBMCs obtained from a healthy individual. A 4:1 ratio of effector to target cells (PBMC:HEp2) were used in these cultures. PBMCs were treated with and without IL-2 before they were co-cultured with HEp-2 cells. The supernatants were then removed from the co-cultures after an overnight incubation and analyzed using the FAST QUANT multiplex cytokine array kit to determine the levels of secreted cytokines.

[2] = tested on: human dental pulp stromal cells; experiment: VEGF release from human dental pulp stromal cells (Table 4); type: cell-based
Method: The cells were then grown in media containing β-glycerophosphate and ascorbic acid until they reached confluency. […] Supernatants were measured for VEGF release.

RAW 264.7 cells = tested on: RAW 264.7 cells
Method: (§1) RAW 264.7 cells (murine macrophages) were obtained from American Type Culture Collection (ATCC) and were cultured in a 5% CO2 atmosphere in DMEM (purchased from Cellgro (Herndon, Va.)) containing 10% FCS, 1% penicillin-streptomycin, 1% sodium pyruvate, 1% non essential amino acids and 1% glutamine. THP-1 cells (human macrophages) were obtained from ATCC and were cultured under the same conditions, with RMPI 1640 containing 10% FCS, 1% penicillin-streptomycin, 1% sodium pyruvate and 1% non essential amino acids.
(§2) Dose-dependent apoptosis was measured by FITC-Annexin V/Propidium iodide kits (Miami, Fla.). Cells were plated in six-well/twelve well plates. […] Cells were washed twice with PBS and centrifuged at about 2000 rpm for about 5 minutes and resuspended in binding buffer (provided in the kit) along with FITC-Annexin V/Propidium iodide (PI) according to manufacturer's instructions. After incubating on ice (light protected) for about 15 minutes, samples were analyzed by flow cytometry. Flow cytometric analysis was performed using a flow cytometer equipped with a single 488-nm argon laser. Dead cell fragments were gated out by forward and side scatter analysis. […] Forward and side scatter were used to gate out cellular fragments.
(§3) After an overnight incubation, the levels of cell death were determined using PI staining of ethanol fixed cells. Specifically, cells were washed twice with PBS before they were treated with 70% ethanol (250 μl). Ethanol was added dropwise and then the cells were incubated on ice for 30 minutes. The cells were then washed twice with PBS and resuspended in 1 ml PBS to which PI at a final concentration of 1 mg/ml was added. The samples were then analyzed using the flow cytometer.
(§4) In FIGS. 2A and 2B, the numbers in each histogram represent the percentage of Sub Go/G1 fragmented cell populations. Ten thousand events were analyzed for each sample.

THP-1 cells = tested on: THP-1 cells
Method: as §1, §2, §3, §4

[3] = tested on: peripheral blood mononuclear cells; experiment: PI/Annexin V apoptosis in peripheral blood mononuclear cells; type: cell-based, human; conditions: PBMCs, overnight
Method: PBMCs were isolated and obtained after Ficoll-hypaque centrifugation as described in Jewett et al., 159, J. Immunol. (1997) which is hereby incorporated by reference. Specifically, human peripheral blood was obtained from normal donors in the laboratory as per guidelines of the UCLA Human Subject Protection Committee. The blood was fractionated on Ficoll-Hypaque, and the buffy layer was harvested, washed and resuspended in media.
Peripheral blood mononuclear cells were then cultured in RPMI 1640 supplemented with 10% FCS, 1% penicillin-streptomycin, 1% sodium pyruvate and 1% non-essential amino acids.
Cells were simultaneously treated in the presence and absence of NAC overnight. […] It is quite well known that apoptotic cells initially lose their size and gain in granularity when they undergo cell death. These changes are one hallmark of apoptosis.

Jurkat T cells = experiment: Cell death in Jurkat T cells (PI/FITC-Annexin V); type: cell-based; conditions: 0.082M-0.0082M HEMA and/or NAC 20 mM simultaneously; overnight
Method: After an overnight incubation the levels of cell death in Jurkat T cells were determined using dual staining with PI/FITC-Annexin V as described previously (FIG. 19B). 10,000 events were analyzed for each sample. Similar results were obtained when apoptosis was assessed by PI staining of ethanol fixed Jurkat T cells. • 2. Decreased Levels of Full Length Caspase 9 and Caspase 3 in HEMA-Treated Keratinocytes

Jurkat cells = experiment: Mitochondrial membrane potential in Jurkat cells (DiOC6); type: cell-based; conditions: HEMA alone or with NAC 20 mM
Method: The membrane potential was assessed by staining with DiOC6 which is a positively charged dye. At low concentrations, it accumulates in mitochondria due to their large negative membrane potential. However when the membrane potential is disrupted there is less binding of this dye.

caspases 9 and 3 = experiment: Full length caspases 9 and 3 in HEp2 cells (Western blot); type: cell-based; conditions: 0.0164M HEMA about 18 hours
Method: Protein concentrations were determined by a DC protein assay kit (Bio-Rad, Hercules, Calif.). An aliquot of total protein lysate was diluted in an equal volume of about 2% SDS sample buffer, about 6.2 mM Tris (pH about 6.8), about 2.3% SDS, about 5% mercaptoethanol, about 10% glycerol, and about 0.02% bromophenol blue and boiled for about 10 minutes. The cell lysates (40 μg) were then electrophoresed on 12% SDS-PAGE gels and were subjected to Western blot analysis. Levels of β-tubulin and actin were used to normalize the protein expression. Relative concentrations were assessed by densitometric analysis of digitized autographic images. The anti-actin and anti-β-tubulin monoclonal antibodies were purchased from Santa Cruz Biotechnology (Santa Cruz, Calif.) and from Calbiochem (San Francisco, Calif.) respectively. The polyclonal antibodies anti-caspase 3 and anti-caspase 9, were obtained from Cell Signaling (San Diego, Calif.). […] Decreased Processing and Cleavage of Caspase 3 in the Presence of NAC

GAPDH mRNA = GAPDH mRNA in dental pulp stromal cells (RT-PCR); type: cell-based; conditions: HEMA alone or with NAC 20 mM, 4 hours
Method: The role of GAPDH in HEMA-mediated cytotoxicity was also evaluated. […] In comparison no significant decrease in β-actin and collagen-1 under the same experimental conditions could be seen.

GAPDH = GAPDH protein in dental pulp stromal cells (KDalert GAPDH assay kit); type: cell-based; conditions: HEMA (0.082M) alone or with NAC 20 mM, 4 hours
Method: After 4 hours of incubation the protein levels of GAPDH were determined using a KDalert GAPDH assay kit (Ambion). This assay is a fluorescent based assay which measures the conversion of NAD+ to NADH catalyzed by GAPDH.

mesenchymal stem cells = experiment: Cell death of mesenchymal stem cells (FITC-Annexin V and PI); type: cell-based
Excerpt: Treated mesenchymal stem cells were then removed and cell death determined using FITC-Annexin V and PI staining.

[4] = NAC 20 mM pretreatment about 8 hours or simultaneous, overnight
[5] = 0.0164M HEMA alone (HEMA) or also treated with NAC (NAC)

CC(=O)N[C@@H](CS)C(=O)O [NAC, N-acetyl-cysteine]
VEGF ([1]; HEp2 −HEMA (+NAC), Control PBMC +IL-2): 5376
VEGF ([1]; HEp2 −HEMA (+NAC), Control PBMC −IL-2): 5260
VEGF ([1]; HEp2 −HEMA (+NAC), No PBMC): 4714
Human dental pulp stromal cells (VEFG secretion) ([2]; NAC alone, no HEMA): 1804.1 pg/mL
inhibition of HEMA-mediated cell death (Sub Go/G1, PI staining) (RAW 264.7 cells; [4]): inhibited HEMA-mediated cell death
inhibition of HEMA-mediated cell death (Sub Go/G1, PI staining) (THP-1 cells; [4]): inhibited HEMA-mediated cell death
cells in the stage of late apoptosis (PI/Annexin V) [3, 5]: about 25%
apoptotic cell death (Jurkat T cells): significantly blocked
mitochondrial membrane potential (Δψm) (Jurkat cells): restored mitochondrial membrane potential
full length caspases 9 and 3 levels (caspases 9 and 3): inhibits HEMA-mediated decrease in caspases 9 and 3
GAPDH mRNA (GAPDH mRNA): prevented this inhibition
GAPDH protein expression (GAPDH): preventing the decrease in GAPDH protein expression
prevention of HEMA-mediated cell death (mesenchymal stem cells; NAC 20 mM, 18 hours): can prevent HEMA-mediated cell death

C=C(C)C(=O)OCCO [HEMA, hydroxyethyl methacrylate]
VEGF ([1]; HEp2 +0.00164M HEMA, −/+NAC, Control PBMC +IL-2): 6923
VEGF ([1]; HEp2 +0.00164M HEMA, −/+NAC, Control PBMC −IL-2): 6640
VEGF ([1]; HEp2 +0.00164M HEMA, −/+NAC, No PBMC): 7139
VEGF ([1]; HEp2 +0.0164M HEMA, −/+NAC, Control PBMC +IL-2): 323
VEGF ([1]; HEp2 +0.0164M HEMA, −/+NAC, Control PBMC −IL-2): 582
VEGF ([1]; HEp2 +0.0164M HEMA, −/+NAC, No PBMC): 294
Human dental pulp stromal cells (VEFG secretion) ([2]; HEMA 0.00164M, alone or with NAC): 163.7 pg/mL
Human dental pulp stromal cells (VEFG secretion) ([2]; HEMA 0.0082M, alone or with NAC): 125.1 pg/mL
Human dental pulp stromal cells (VEFG secretion) ([2]; HEMA 0.0164M, alone or with NAC): 113.4 pg/mL
HEMA-mediated cell death and cytotoxicity (FITC-Annexin V/PI) (RAW 264.7 cells; HEMA about 18 hours): detected at millimole to micromole concentrations
HEMA-mediated cell death and cytotoxicity (FITC-Annexin V/PI) (THP-1 cells; HEMA about 18 hours): detected at millimole to micromole concentrations
cells in the stage of late apoptosis (PI/Annexin V) ([3]; 0.0082M HEMA alone (HEMA) or also treated with NAC (NAC)): 39%
cells in the stage of late apoptosis (PI/Annexin V) [3, 5]: about 45%
apoptotic cell death (Jurkat T cells): undergo apoptotic cell death
mitochondrial membrane potential (Δψm) (Jurkat cells): decrease in mitochondrial membrane potential
full length caspases 9 and 3 levels (caspases 9 and 3): diminishes full length caspases 9 and 3 levels
GAPDH mRNA (GAPDH mRNA): significant inhibition of GAPDH mRNA
GAPDH protein expression (GAPDH): significant decrease in GAPDH protein expression
cells that underwent cell death (mesenchymal stem cells; mesenchymal stem cells, 0.0164M HEMA): 86.1%
